These are literature values, as cited in patent US20230381192A1, “METHODS FOR CONTROLLING AND PREDICTING RECOVERY AFTER NMBA ADMINISTRATION” (Cornell University, priority 2020, published 2023).

Each structure is given as a SMILES string.

The conditions of data set [1]: preclinical studies; cited from earlier work.
The next data set relates to dogs. The note with it: very high doses (27 and 54×ED95); cited from earlier work.
The conditions of data set [2]: in vivo; cited from earlier work.
Another data set concerns monkeys. The conditions noted are these: cited from earlier work.

Take `COc1ccc(C[C@@H]2c3cc(OC)c(OC)cc3CC[N@@+]2(C)CCCOC(=O)/C=C/C(=O)OCCC[N@+]2(C)CCc3cc(OC)c(OC)cc3[C@H]2Cc2ccc(OC)c(OC)c2)cc1OC.[Cl-].[Cl-]` [RP1000]: in data set [1], the “time to 100% NMB after administration” value was no more than 90 s. In the data set on dogs, the “decrease in mean arterial pressure” value is 20% and the “increase in heart rate” value is listed as 20%. The “potential for bronchoconstrictive activity or histamine release” value in data set [2] is “low potential”. In addition, the “effects on autonomic or circulatory systems” value in the data set with monkeys is on record as “no observed ill-elects on autonomic or circulatory systems”.
